According to patent US9138013B2, “Sweet flavor modifier” (SENOMYX, INC., priority 2012, dated 2015):

Key:
[1] = system: human panelists; assay: Sucrose potentiation in Iced Coffee product prototype, paired comparison test; assay type: in vivo; conditions: Table 19: Iced Coffee, 8% Sucrose vs 4% Sucrose + 7.6 μM Compound K2; n = 33 (11 panelists × 3 reps)
Protocol: All samples were made in an Iced Coffee formulation consisting of Brewed Coffee, 2% milk, Sucrose and water. The samples were prepared using a 0.2% Compound stock made with 0.2% sodium bicarbonate and water. Tests samples are presented in pairs to the panelists and they are asked to determine which of the sample is sweeter.
(§1) In one paired comparison test, the panelist is presented with two different samples and asked to identify the sample which is sweeter. The samples within a paired comparison test are presented in a randomized, counterbalanced order. Panelists have up to a 1 minute delay between taste tests to clear the mouth of any tastes.
(§2) Binomial probability tables are used to determine the probability of the correct number of responses occurring for each test at alpha=0.05.

[2] = system: human panelists; assay: Paired comparison test, sweet flavor potentiation with sucrose or HFCS as the sweetener; assay type: in vivo
Protocol: (§3) Test samples containing experimental compounds are presented in pairs to the panelist and they are asked to determine which of the sample is sweeter. […] A group of 10-16 or more panelists participated in each test. Subjects refrained from eating or drinking (except water) for at least 1 hour prior to the test. Subjects rinsed with water several times to clean the mouth.
(§4) Taste tests were performed with sucrose or HFCS as the sweetener in the presence or absence of compound. A 0.2% stock solution of compound in water with sodium bicarbonate was prepared and then this stock solution was diluted in the final sample to achieve the targeted final concentration of compound. For the sample evaluated at pH 2.8 the pH of the solution is decreased to about pH 2.8 using citric acid. Taste samples were also prepared in a low sodium phosphate buffer (pH 7.1; “LSB”) lacking sucrose or HFCS to evaluate the taste of the compound alone. Low sodium phosphate buffer consists of 0.3 mM KCl, 0.5 mM Na2HPO4, and 0.175 mM KH2PO4. Sample volumes are usually 20 ml.
as §1, §2

[3] = system: human panelists; assay: Paired comparison test, taste of the compound alone in low sodium phosphate buffer (LSB); assay type: in vivo
Protocol: as §3, §4, §1, §2

| melting point [°C] | Compound | Sample selected as sweeter by panelists, Total [1] | Sample selected as sweeter by panelists, Total ([2]; Table 1-a: 12% Sucrose vs 6% Sucrose + 21 μM Compound Q1, pH 7.1, n = 30 (15 panelists × 2 reps)) | Sample selected as sweeter by panelists, Total ([2]; Table 1-b: 12% Sucrose vs 6% Sucrose + 7.9 μM Compound Q1, pH 2.8, n = 42 (14 panelists × 3 reps)) | Sample selected as sweeter by panelists, Total ([2]; Table 4-a: 12% Sucrose vs 6% Sucrose + 12.7 μM Compound J2, pH 7.1, n = 51 (17 panelists × 3 reps)) | Sample selected as sweeter by panelists, Total ([2]; Table 4-b: 12% Sucrose vs 6% Sucrose + 12.7 μM Compound J2, pH 2.8, n = 45 (15 panelists × 3 reps)) | Sample selected as sweeter by panelists, Total ([2]; Table 7-a: 11% Sucrose vs 6% Sucrose + 12.7 μM Compound K2, pH 7.1, n = 36 (12 panelists × 3 reps)) | Sample selected as sweeter by panelists, Total ([2]; Table 7-b: 12% Sucrose vs 6% Sucrose + 7.6 μM Compound K2, pH 2.8, n = 36 (18 panelists × 2 reps)) | Sample selected as sweeter by panelists, Total ([2]; Table 10: 12% Sucrose vs 6% Sucrose + 12.7 μM Compound L2, pH 7.1, n = 42 (14 panelists × 3 reps)) | Sample selected as sweeter by panelists, Total ([2]; Table 13: 12% Sucrose vs 6% Sucrose + 11.9 μM Compound B1, pH 7.1, n = 34 (17 panelists × 2 reps)) | Sample selected as sweeter by panelists, Total ([2]; Table 16: 10% Sucrose vs 6% Sucrose + 9.2 μM Compound F3, pH 7.1, n = 33 (11 panelists × 3 reps)) | Sample selected as sweeter by panelists, Total ([3]; Table 3: 1% Sucrose vs LSB + 26.3 μM Compound Q1, n = 26 (13 panelists × 2 reps)) | Sample selected as sweeter by panelists, Total ([3]; Table 6: 1% Sucrose vs LSB + 20.4 μM Compound J2, n = 26 (13 panelists × 2 reps)) | Sample selected as sweeter by panelists, Total ([3]; Table 9: 1% Sucrose vs LSB + 12.7 μM Compound K2, n = 51 (17 panelists × 2 reps)) | Sample selected as sweeter by panelists, Total ([3]; Table 12: 1% Sucrose vs LSB + 12.7 μM Compound L2, n = 36 (12 panelists × 3 reps)) | Sample selected as sweeter by panelists, Total ([3]; Table 15: 1% Sucrose vs LSB + 11.9 μM Compound B1, n = 45 (15 panelists × 3 reps)) | Sample selected as sweeter by panelists, Total ([3]; Table 18: 1% Sucrose vs LSB + 9.2 μM Compound F3, n = 30 (15 panelists × 2 reps)) |
| --- | --- | --- | --- | --- | --- | --- | --- | --- | --- | --- | --- | --- | --- | --- | --- | --- | --- |
| > 250 | NC1=NS(=O)(=O)Nc2cccc(OC[C@H]3CCCN(C(=O)c4ccncc4)C3)c21 [Example 3, (S)-(3-(((4-amino-2,2-dioxido-1H-benzo[c][1,2,6]thiadiazin-5-yl)oxy)methyl)piperidin-1-yl)(pyridin-4-yl)methanone] |  |  |  |  |  |  |  |  |  |  |  |  |  |  |  |  |
|  | OC[C@H]1O[C@@](CO)(O[C@H]2O[C@H](CO)[C@@H](O)[C@H](O)[C@H]2O)[C@@H](O)[C@@H]1O [Sucrose, sucrose] | 16 | 18 | 24 | 28 | 20 | 20 | 21 | 19 | 19 | 16 | 14 | 14 | 29 | 19 | 19 | 16 |
